The values that follow come from patent US8017350B2, “Glimepiride- and insulin-induced glycosylphosphatidylinositol-specific phospholipase C regulation” (Sanofi-Aventis Deutschland GmbH, priority 2004, dated 2011).

One data set concerns rat adipocyte GPI-PLC. The experiment in a line: adipocyte GPI-PLC assay (plasma membranes or hc/lcDIGs, AChE substrate, TX-114 partitioning). Format: biochemical. The following applies: at the highest concentration tested, only. How it is done:
(§1) GPI-PLD (rat serum) was assayed according to “Hari et al. (1997) Biochim. Biophys. Acta 1355: 293-302” by incubation with 10 μl of human placental aP solution (100 U/ml in 10 mM Hepes/NaOH, pH 7.0, 150 mM NaCl) in 100 μl of 200 mM Tris/maleate (pH 7.0) and 1% Nonidet P-40 for 10 min at 37° C. and subsequent termination of the reaction by addition of 0.4 ml of ice-cold stop buffer (10 mM Hepes/NaOH, pH 7.0, 150 mM NaCl, 0.1 mM MgCl2 and 0.01 mM zinc acetate). GPI-PLC (T. brucei) was assayed as described in “Mensa-Wilmot et al. (1995) Methods Enzymol. 250: 641-655” by incubation with 5 μl of human placental aP solution (see above) in 50 μl of 50 mM Tris/HCl (pH 8.0), 0.25% Nonidet P-40 and 5 mM EDTA for 30 min at 37° C. and subsequent termination of the reaction by addition of 0.45 ml of stop buffer. PI-PLC (B. cereus) and adipocyte GPI-PLC (5-25 μg plasma membranes or hc/lcDIGs) were assayed by incubation with 10 μl of bovine erythrocyte acetylcholinesterase (AChE) solution (12 U/ml in 10 mM Tris/HCl, pH 7.4, 144 mM NaCl, 0.1% TX-100) in 100 μl of 20 mM Hepes/KOH (pH 7.8), 144 mM NaCl, 0.1% TX-100, 0.2 mM MgCl2 for 1 h at 25° C. and subsequent termination by adding 5 μl of glacial acetic acid and then 0.4 ml of 10 mM Tris/HCl (pH 7.4), 144 mM NaCl. Each reaction mixture was subjected to TX-114 partitioning (see below).
(§2) Pelleted hc/lcDIGs (10-50 μg protein) or (G)PI-PLC reaction mixtures (0.5 ml) were separated into amphiphilic and hydrophilic proteins using partitioning between TX-114-enriched and depleted phases according to “Bordier, C., (1981) J. Biol, Chem. […]” by suspending in 1 ml of ice-cold TX-114 (1%), 25 mM Tris/HCl (pH 7.4), 144 mM NaCl or mixing with 0.5 ml of ice-cold TX-114 (2%), respectively. After incubation for 1 h on ice, the mixture was layered onto a cushion of 0.4 ml of 0.25 M sucrose and 25 mM Tris/HCl (pH 7.4) on ice. Phase separation was induced by warming up to 37° C. and subsequent centrifugation (10,000×g, 1 min). After re-extraction of the lower TX-114-enriched phase, aliquots of the pooled upper TX-114-depleted phase were measured for 5′-Nuc, aP and AChE activity or precipitated (15 polyethylene glycol 4000) for SDS-PAGE analysis.
Table 1: GPI-PLC of hcDIGs from rat adipocytes, GPI-PLC from T. brucei and PI-PLC from B. cereus were incubated with solubilized and partially purified bovine erythrocyte AChE or human placental aP in the absence or presence of increasing concentrations (0.05 μM-1 mM) of the inhibitors indicated under appropriate conditions (see Materials and Methods). Cleavage rate was calculated from the amount of hydrophilic AChE and aP activity recovered with the TX-114-depleted phase upon TX-114 partitioning. […]

In the next data set the target is T1, GPI-PLC (T. brucei) (Trypanosoma brucei brucei, UniProt P09194).
T1 construct: purchased Oxford Glycosystems (Oxford, UK)
The data set can be described thus: GPI-PLC (T. brucei) assay, human placental aP substrate, TX-114 partitioning. Format: biochemical. How it is done: as §1, §2
(§3) Table 1: GPI-PLC of hcDIGs from rat adipocytes, GPI-PLC from T. brucei and PI-PLC from B. cereus were incubated with solubilized and partially purified bovine erythrocyte AChE or human placental aP in the absence or presence of increasing concentrations (0.05 μM-1 mM) of the inhibitors indicated under appropriate conditions (see Materials and Methods). Cleavage rate was calculated from the amount of hydrophilic AChE and aP activity recovered with the TX-114-depleted phase upon TX-114 partitioning. Means+SD from at least 3 independent incubations with partitioning/enzyme assays in quadruplicate are given. n.a., not applicable.
(§4) Purified (G)PI-PLC/D from B. cereus, rat serum and T. brucei as well as total plasma membranes (PM) and hc/lcDIGs prepared from isolated rat adipocytes were incubated (10 min, 30° C.) with increasing concentrations of GPI-2350 and then assayed for amphiphilic-to-hydrophilic conversion of AChE and aP by TX-114 partitioning (see Materials and Methods). The lipolytic activity was calculated as % of the control reaction in the absence of GPI-2350 (set at 100%). Means+SD of at least 4 independent incubations with AChE and aP activity measurements in triplicate each are given.

A further data set addresses T2, PI-PLC (B. cereus) (Bacillus cereus, UniProt P14262).
T2 construct: purchased SigmalAldrich (Deisenhofen, Germany)
The experiment in a line: PI-PLC (B. cereus) assay, AChE substrate, TX-114 partitioning. Format: biochemical. The following applies: read-out: inhibition % at 1 mM. How it is done:
as §1, §2, §3, §4

The test system of the next data set is isolated rat adipocytes. The experiment in a line: glucose transport assay (2-deoxy-D-[3H]glucose). The format is cell-based. How it is done: (§5) Glucose transport was determined as described in “Müller, G. et al., (1994) J. Cell Biol. 126: 1267-1276” by incubation of 10,000-20,000 washed adipocytes with 2-deoxy-D[2,6-^3H]glucose at 50 μM final conc. (0.33 μCi/ml) in 50-μl portions for 20 min at 37° C. in the absence or presence of 20 μM cytochalasin B.
(§6) Table 3: Isolated rat adipocytes were incubated in the presence of methyl-β-cyclodextrin (m-β-CD, 10 mM, 50 min), CBDP (300 μM, electroporation, followed by washing and subsequent incubation for 30 min), PIG41 (10 μM, 15 min), sodium orthovanadate (1 mM, 15 min), trypsin (10 μg/ml, 15 min followed by treatment with 0.5 M NaCl and subsequent washing) and N-ethylmaleimide (1 mM, 5 min followed by addition of DTT). After addition of GPI-2350 (50 μM final conc.) to one half of the adipocyte suspension and further incubation (60 min, 37° C.), portions of the cells were assayed for 5′-Nuc activity in the isolated IcDIGs. The increase in 5′-Nuc during the basal incubation was set at 100 arb. units. Other portions of the cells (after 15 min incubation) were assayed for glucose transport which was set at 100 arb. units for the basal incubation. Means+SD of at least 3 independent cell incubations with activity measurements in triplicate each are given.
(§7) FIG. 8: Effect of GPI-2350 on the glimepiride/insulin-induced metabolic activity. Isolated rat adipocytes were treated (5 min, 37° C.) without or with GPI-2350 (Panel A, 50 μM; Panel B, increasing conc.; Panel C, 5 μM, 50 μM) and then incubated (15 min, 37° C.) in the absence or presence of insulin (Ins, 10 nM) or glimepiride (Gli, 20 μM or increasing conc.) as indicated. The adipocytes were then assayed for glucose transport and isoproterenol-induced lipolysis. The activity is given relative to the absence of GPI-2350 in the control reaction (Panels A, basal) or in the insulin- and glimepiride-stimulated state (Panels B and C, set at 100). Means+SD of at least 5 independent cell incubations with activity measurements in triplicate each are given.

The test system of data set [1] is 5′-Nuc in isolated rat adipocytes. The data set can be described thus: 5′-Nuc translocation to lcDIGs induced by insulin-mimetic stimuli. The format is cell-based. How it is done: as §6
For data set [2], the system named is patients with type 2 diabetes. The settings on record: cited from earlier work.
Data set [3] has as its system glucose transport, rat adipocytes. The experiment in a line: Glucose transport in rat adipocytes. The settings on record: for Glucose Transport: basal set at 100; for glucose transport (in words): insulin-mimetic stimuli. The format is cell-based. On the procedure:
as §5
Subsequently, we studied whether the differential effects of GPI-PLC inhibition on IRS-1 tyrosine phosphorylation in response to insulin and glimepiride is reflected in their metabolic activity in insulin target cells. For this, isolated rat adipocytes were pretreated with GPI-2350 prior to challenge with either stimulus, and then assayed for glucose transport and isoproterenol-induced lipolysis (FIG. 8). […] These differential effects of GPI-PLC inhibition were confirmed by analysis of the effect of GPI-2350 on the inhibition of isoproterenol-induced lipolysis by glimepiride and insulin when measured as release of NBD-FA instead of glycerol from rat adipocytes prelabeled with this fluorescent fatty acid derivative (FIG. 9).
as §6, §7

The subject of the next data set is 5'-Nuc, rat adipocytes. The data set can be described thus: 5'-Nuc translocation to lcDIGs induced by insulin-mimetic stimuli. The format is cell-based. The following applies: for Increase in 5′-Nuc at lcDIGs: basal set at 100.
Excerpt: Finally, the involvement was investigated of the GPI-PLC in signaling pathways of insulin-mimetic stimuli other than glimepiride, which are either dependent on or independent of the redistribution of GPI-proteins within DIGs. […] This is in agreement with their modes of action, the well-known inhibition of insulin receptor and IRS-1 dephosphorylation by the tyrosine phosphatase inhibitor, vanadate and the direct stimulation of pp59^Lyn and IRS-1 tyrosine phosphorylation by the CBDP.
as §6

Setting [4] is: +GPI-2350 (50 μM final conc., 15 min).
[5] abbreviates: +GPI-2350 (50 μM final conc., 60 min).

A word on the pIC50: it is −log10 of the IC50, conventionally taken in molar units. A low value points to a high IC50. Usually inhibition stands for the relative decrease from the control value, in per cent.

pIC50: −log10 of the molar value.

T1 sequence (P09194 whole entry): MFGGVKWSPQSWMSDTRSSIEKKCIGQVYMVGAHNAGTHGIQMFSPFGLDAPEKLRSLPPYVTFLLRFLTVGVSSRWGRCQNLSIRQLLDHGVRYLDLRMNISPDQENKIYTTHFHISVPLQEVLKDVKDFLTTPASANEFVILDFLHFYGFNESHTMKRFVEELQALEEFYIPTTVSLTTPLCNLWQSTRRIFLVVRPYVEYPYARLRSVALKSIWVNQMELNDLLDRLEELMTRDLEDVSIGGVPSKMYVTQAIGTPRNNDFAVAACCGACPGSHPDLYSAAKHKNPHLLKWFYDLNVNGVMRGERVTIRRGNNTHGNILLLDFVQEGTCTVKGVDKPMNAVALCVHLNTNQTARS
T2 sequence (P14262 32-329 limits assumed): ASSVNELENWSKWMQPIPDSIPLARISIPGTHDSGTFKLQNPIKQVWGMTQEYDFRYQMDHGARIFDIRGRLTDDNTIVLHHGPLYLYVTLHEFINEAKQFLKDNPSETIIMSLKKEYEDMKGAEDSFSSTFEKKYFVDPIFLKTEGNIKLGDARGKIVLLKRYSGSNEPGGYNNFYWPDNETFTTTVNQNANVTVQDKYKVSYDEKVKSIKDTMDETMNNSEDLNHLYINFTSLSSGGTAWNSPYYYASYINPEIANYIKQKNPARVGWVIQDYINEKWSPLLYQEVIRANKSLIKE

On to `CCCCCCCCCCCCP(=O)(O)O[C@H]1[C@H](O)[C@@H](O)[C@H](O)[C@@H](O)[C@@H]1F` [GPI-1793, 2-deoxy-2-fluoro-scyllo-inositol-1-O-dodecyl-phosphonic acid], for which, in the data set on rat adipocyte GPI-PLC, the “effect on the adipocyte GPI-PLC” value is “moderate”.
Turning to `CCCCCCCCCCCCP(=O)(OC)O[C@@H]1[C@H](O)[C@H](O)[C@@H](O)[C@H](O)[C@H]1O` (stereo partly shown) [GPI-2349, myo-inositol-1-O-dodecylphosphonic acid methylester], in the data set with rat adipocyte GPI-PLC, the “effect on the adipocyte GPI-PLC” value is reported as “very moderate”. This compound also gave a pIC50 against GPI-PLC (T. brucei) (IC50, Table 1, inhibitor 0.05 μM-1 mM) of 3.41 to 3.51. Moreover, the figures for the inhibition at 1000 µM at GPI-PLC (T. brucei) (read-out: inhibition % at 1 mM) and on PI-PLC (B. cereus) were 66% and 24%, respectively.
With `CCN1C(=O)C=CC1=O` [N-ethylmaleimide], the “Glucose Transport (basal set at 100 arb. units)” value is listed as 288 + 40 arb. units in the data set with isolated rat adipocytes (setting [4]) and 308 + 33 arb. units in the data set with isolated rat adipocytes (−GPI-2350). For the same compound, the entries for the “Increase in 5′-Nuc at lcDIGs (basal set at 100 arb. units)” value (“Increase … (basal set at 100 arb. units)” for short) in data set [1] (setting [5]) and in data set [1] (−GPI-2350) were 319 + 52 arb. units and 292 + 60 arb. units, respectively.
For `CCC1=C(C)CN(C(=O)NCCc2ccc(S(=O)(=O)NC(=O)N[C@H]3CC[C@H](C)CC3)cc2)C1=O` [glimepiride], the effects vs. gliclazide entry in data set [2] (14-week study) is reported as “no differences between their effects”. For the same compound, the “rate of blood glucose reduction vs. glipizide” value in data set [2] (first few weeks of treatment) is listed as “more rapidly than glipizide”. Moreover, in data set [2] (human, in vivo), the “effects on cardiovascular variables” value was “fewer and less severe effects on cardiovascular variables than glibenclamide”; the “pharmacokinetics in elderly, renal or liver disease” value is reported as “mainly unaltered”. Further, the “efficacy of glimepiride plus insulin” value in data set [2] (secondary sulphonylurea failure, fasting glucose target ≦7.8 mmol/L) is on record as “as effective as insulin plus placebo”.
On to `[Na+].[Na+].[Na+].[O]=[V]([O-])([O-])[O-]` [sodium orthovanadate], for which the “Glucose Transport (basal set at 100 arb. units)” value in the data set with isolated rat adipocytes (setting [4]) was 673 + 45 arb. units; in the data set on isolated rat adipocytes (−GPI-2350), 707 + 51 arb. units. Moreover, the “Increase … (basal set at 100 arb. units)” value in data set [1] (setting [5]) is on record as 105 + 34 arb. units; in data set [1] (−GPI-2350), 93 + 38 arb. units. Also, the “Glucose Transport” value in data set [3] (+GPI-2350 (50 μM)) is reported as 673 + 45 arb. units; in data set [3] (−GPI-2350), 707 + 51 arb. units. Besides, in data set [3], the “glucose transport (in words)” value is on record as “stimulated glucose transport”. For the same compound, the “5'-Nuc at lcDIGs (in words)” value with 5'-Nuc, rat adipocytes is recorded as “without concomitant induction of 5′-Nuc translocation to IcDIGs”. In addition, the “Increase in 5′-Nuc at lcDIGs” value is recorded as 105 + 34 arb. units in the data set with 5'-Nuc, rat adipocytes (+GPI-2350 (50 μM)) and 93 + 38 arb. units in the data set on 5'-Nuc, rat adipocytes (−GPI-2350).
Take “methyl-β-cyclodextrin [m-β-CD] [listing 1 of 2 here]”: the figures for the “Glucose Transport (basal set at 100 arb. units)” value in the data set with isolated rat adipocytes (setting [4]) and in the data set on isolated rat adipocytes (−GPI-2350) were 249 + 18 arb. units and 289 + 13 arb. units, respectively. The “Increase … (basal set at 100 arb. units)” value in data set [1] (setting [5]) is recorded as 539 + 104 arb. units; in data set [1] (−GPI-2350), 595 + 128 arb. units.
On to “methyl-β-cyclodextrin [m-β-CD] [listing 2 of 2 here]”, for which the figures for the “Glucose Transport” value in data set [3] (+GPI-2350 (50 μM)) and in data set [3] (−GPI-2350) were 249 + 18 arb. units and 289 + 13 arb. units, respectively. Moreover, the “glucose transport (in words)” value in data set [3] is listed as “glucose transport activation”. Further, the “5'-Nuc at lcDIGs (in words)” value with 5'-Nuc, rat adipocytes is “pronounced increases”. The “Increase in 5′-Nuc at lcDIGs” value is recorded as 539 + 104 arb. units in the data set on 5'-Nuc, rat adipocytes (+GPI-2350 (50 μM)) and 595 + 128 arb. units in the data set on 5'-Nuc, rat adipocytes (−GPI-2350).
